What was measured:
[1] = molecular target: T1, synthetic aggregated amyloid beta (Aβ) (Homo sapiens, UniProt P05067); experiment: Fluorescence emission spectra of compounds with and without aggregated amyloid beta; assay type: binding; details: for Fold Increase at maximum emission (compound+Aβ/compound): 4 μM compound, 5 μM aggregated Aβ in 1×PBS; for Peak emission: aggregated Aβ
T1 construct: synthetic aggregated amyloid beta (Aβ)
Protocol: (§1) Emission spectra for compound 1 and compound 1a were collected after incubation of the compounds with and without aggregated amyloidogenic protein at specific excitation wavelengths (450 nm and 488 nm) employed in standard ocular imaging equipment. Amyloidogenic proteins (synthetic aggregated amyloid beta (Aβ), α-synuclein (ASYN), transthyretin (TTR), TAR DNA-binding protein 43 (TDP43), and phosphorylated tau (TAU)) were aggregated in vitro using the following procedure. The amyloidogenic protein was removed from the freezer and allowed to warm to room temperature, then 1 mg of amyloidogenic protein was dissolved in 215 μL of ddH2O for about 10-20 mins at room temperature. To the resulting solution, 2 mL of ddH2O was added to provide a 100 μM stock solution. A 100 μL aliquot was sampled and frozen (non-aggregated sample). The tubes were placed in a thermoshaker at 350 rpm for 3 days. Care was taken to avoid generating bubbles. Protein aggregation was confirmed by measuring binding to Thioflavin T (ThT). Aggregated protein was then portioned into 150 μL aliquots and stored at −80° C. The fluorescent emission spectra were measured as follows to determine binding of synthetic aggregated amyloid beta (Aβ), α-synuclein (ASYN), transthyretin (TTR), TAR DNA-binding protein 43 (TDP43), and phosphorylated tau (TAU) to test compounds described herein. The Shimadzu fluorimeter was turned on and allowed to warm up for ~60 minutes. The test compounds were then removed from the −20° C. freezer and were allowed to warm to room temperature. The 100 μM aggregated Aβ solution was then removed from the −80° C. freezer and also allowed to warm to room temperature. 250 μM solutions of each test compound in DMSO were then prepared. These were then used to prepare 4 μM solutions of each test compound, with and without 5 μM aggregated Aβ in 1×PBS, in triplicates. Using a cuvette, the fluorescent emission spectra were measured for each test compound+Aβ solution, employing a DMSO/PBS solution as a blank. Each sample was tested at an excitation of 450 nm and 488 nm. Fluorescent emission spectra were then collected for each 4 μM test compound solution alone. The resulting data were used to plot intensity vs. wavelength for each emission scan. The fold increase at maximum emission (compound+Aβ/compound) is calculated for each test compound.

[2] = molecular target: α-synuclein (ASYN) (Homo sapiens, UniProt P37840); experiment: Fluorescence emission spectra of compounds with and without aggregated α-synuclein; assay type: binding
Protocol: as §1

[3] = molecular target: transthyretin (TTR) (Homo sapiens, UniProt P02766); experiment: Fluorescence emission spectra of compounds with and without aggregated transthyretin; assay type: binding
Protocol: as §1

[4] = molecular target: TAR DNA-binding protein 43 (TDP43) (Homo sapiens, UniProt Q13148); experiment: Fluorescence emission spectra of compounds with and without aggregated TDP43
Protocol: as §1

[5] = test system: 3RTau; experiment: Fluorescence emission spectra of compounds with and without aggregated 3RTau; assay type: binding
Protocol: as §1

[6] = test system: 4RTau; experiment: Fluorescence emission spectra of compounds with and without aggregated 4RTau; assay type: binding
Protocol: as §1

[7] = test system: amyloidogenic aggregates (Aβ, ASYN, TTR, TDP43, 3RTau, and 4RTau); experiment: In vitro binding to amyloidogenic aggregates, summary statement; details: excitation 450 nm or 488 nm
Protocol: Amyloidogenic proteins (synthetic aggregated amyloid beta (Aβ), α-synuclein (ASYN), transthyretin (TTR), TAR DNA-binding protein 43 (TDP43), and phosphorylated tau (TAU)) were aggregated in vitro using the following procedure. The amyloidogenic protein was removed from the freezer and allowed to warm to room temperature, then 1 mg of amyloidogenic protein was dissolved in 215 μL of ddH2O for about 10-20 mins at room temperature. To the resulting solution, 2 mL of ddH2O was added to provide a 100 μM stock solution. A 100 μL aliquot was sampled and frozen (non-aggregated sample). The tubes were placed in a thermoshaker at 350 rpm for 3 days. Care was taken to avoid generating bubbles. Protein aggregation was confirmed by measuring binding to Thioflavin T (ThT). Aggregated protein was then portioned into 150 μL aliquots and stored at −80° C.
The fluorescent emission spectra were measured as follows to determine binding of synthetic aggregated amyloid beta (Aβ), α-synuclein (ASYN), transthyretin (TTR), TAR DNA-binding protein 43 (TDP43), and phosphorylated tau (TAU) to test compounds described herein. […] Using a cuvette, the fluorescent emission spectra were measured for each test compound+Aβ solution, employing a DMSO/PBS solution as a blank. […] The fold increase at maximum emission (compound+Aβ/compound) is calculated for each test compound. […]

Chain of TAR DNA-binding protein 43 (TDP43) (Q13148 whole entry): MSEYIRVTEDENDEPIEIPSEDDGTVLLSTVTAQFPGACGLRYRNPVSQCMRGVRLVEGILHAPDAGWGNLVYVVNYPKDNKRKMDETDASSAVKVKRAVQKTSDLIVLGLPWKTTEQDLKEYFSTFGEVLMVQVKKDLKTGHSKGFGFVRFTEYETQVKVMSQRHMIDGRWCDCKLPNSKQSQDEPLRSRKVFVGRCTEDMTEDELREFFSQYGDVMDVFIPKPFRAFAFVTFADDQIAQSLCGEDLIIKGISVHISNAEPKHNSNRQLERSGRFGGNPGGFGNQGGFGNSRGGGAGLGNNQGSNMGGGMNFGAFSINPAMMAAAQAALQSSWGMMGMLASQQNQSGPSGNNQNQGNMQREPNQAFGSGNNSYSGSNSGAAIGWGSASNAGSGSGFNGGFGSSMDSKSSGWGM
T1 sequence (P05067 672-713 limits assumed): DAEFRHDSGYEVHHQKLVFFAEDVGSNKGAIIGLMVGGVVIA

| Compound | Fold Increase at maximum emission (compound+Aβ/compound) ([1]; excitation 450 nm) | Peak emission ([1]; excitation 450 nm) | Fold Increase at maximum emission (compound+Aβ/compound) ([1]; excitation 488 nm) | Peak emission ([1]; excitation 488 nm) | Fold Increase at maximum emission ([2]; excitation 450 nm) | Peak emission ([2]; excitation 450 nm) | Fold Increase at maximum emission ([2]; excitation 488 nm) | Peak emission ([2]; excitation 488 nm) | Fold Increase at maximum emission ([3]; excitation 450 nm) | Peak emission ([3]; excitation 450 nm) | Fold Increase at maximum emission ([3]; excitation 488 nm) | Peak emission ([3]; excitation 488 nm) | Fold Increase at maximum emission ([4]; excitation 450 nm) | Peak emission ([4]; excitation 450 nm) | Fold Increase at maximum emission ([4]; excitation 488 nm) | Peak emission ([4]; excitation 488 nm) | Fold Increase at maximum emission ([5]; excitation 450 nm) | Fold Increase at maximum emission ([5]; excitation 488 nm) | Fold Increase at maximum emission ([6]; excitation 450 nm) | Fold Increase at maximum emission ([6]; excitation 488 nm) | further results |
| --- | --- | --- | --- | --- | --- | --- | --- | --- | --- | --- | --- | --- | --- | --- | --- | --- | --- | --- | --- | --- | --- |
| N#C/C(=C\c1ccc2cc(N3CCCCC3)ccc2c1)C(=O)CCCOCCOCCO [Compound 1, (E)-6-(2-(2-hydroxyethoxy)ethoxy)-3-oxo-2-((6-(piperidin-1-yl)naphthalen-2-yl)methylene)hexanenitrile] | 10.16 | 559 | 9.11 | 556 | 105.50 | 552 | 109.97 | 557 | 5.18 | 553 | 7.21 | 560 | 15.33 | 547 | 18.32 | 556 | 68.04 | 69.31 | 14.35 | 29.25 | Binding to all amyloidogenic aggregates tested [7]: successfully bound |
| N#C/C(=C\c1ccc2cc(N3CCCCC3)ccc2c1)C(=O)CCC(O)CO (stereo not drawn) [Compound 1a, (E)-6,7-dihydroxy-3-oxo-2-((6-(piperidin-1-yl)naphthalen-2-yl)methylene)heptanenitrile] | 9.48 | 554 | 19.60 | 559 | 120.92 | 554 | 190.64 | 554 | 4.67 | 550 | 7.35 | 557 | 23.23 | 551 | 20.40 | 551 | 84.37 | 103.65 | 22.19 | 22.48 | Binding to all amyloidogenic aggregates tested [7]: successfully bound |

Reference: patent publication US20260217667A1, “AMYLOID TARGETING AGENTS” (Amydis, Inc., priority 2023, published 2026)
